Data on eight compounds can be found in US20100266623A1, “SYNTHETIC, SELF ADJUVANTING VACCINES” (priority 2008, published 2010).

Counter-ions that a name gives are not always drawn. Where no end group is shown, it is not given here.

Assay [1] has as its system anti-amphetamine antibodies. In words: Competitive ELISA for specificity of anti-amphetamine antibodies. Particulars: 2° sera of mice immunised with lipidated amphetamine-TH(MV); coat 5 μg per ml. The assay is classed as binding. (In general: ELISA stands for enzyme-linked immunosorbent assay.)
A further assay concerns anti-DNP antibodies. Put plainly: Inhibition ELISA for specificity of anti-DNP antibodies on DNP-BSA coated plates. The assay is classed as binding, BALB/c mice. The conditions noted are these: for inhibition of antibody binding to DNP-BSA coated plates by irrelevant inhibitors: sera not specified; for inhibition of antibody binding to DNP-BSA coated plates: inhibitor dilutions from 25 nmol/well. As for the experimental part: Competitive ELISA assays involved an extra step whereby ½ log dilutions of inhibitors in BSA5PBST beginning at 25 nmol/well were added to a constant limiting concentration of antibody in BSA5PBST and incubated for 2 hours on separate polyvinyl plates during the blocking step of a regular ELISA. 50 μl/well of the inhibitor and sera mixtures were then transferred to coated, blocked and washed plates and incubated overnight. Plates were then conjugated with HRP-RαM, developed, and read as per ELISA. The percentage of inhibition was determined by the following formula: […]
Inhibition ELISAs were utilised to determine whether antibody-titres detected in previous direct-binding ELISAs consisted mainly of anti-DNP antibodies. All immunogens (peptide- and protein-based) incorporated the 2,4-DNP isomer.
Sera were incubated with different amounts of various inhibitors (FIG. 14) before addition to DNP-BSA coated plates.

Where [2] appears, read: 2° sera of BALB/c mice immunised with DNP-BSA in CFA.
Where [3] appears, read: 2° sera of BALB/c mice immunised with lipidated DNP-TH(MV).

For `COC(=O)[C@H]1[C@@H](OC(=O)c2ccccc2)C[C@@H]2CC[C@H]1N2C` [cocaine hydrochloride], the “inhibition of antibody binding to amphetamine-TH(ova) coated plates” value in assay [1] is reported as “No inhibition”. Consider `N[C@@H](Cc1ccc(O)cc1)C(=O)O` [tyrosine], for which the “inhibition of antibody binding to DNP-BSA coated plates by irrelevant inhibitors” value with anti-DNP antibodies is “no inhibition”. With “amphetamine-TH(Flu): succinyl amphetamine-Lys-TH(Flu) peptide, no lipid; coating antigen and inhibitor (KALNNRFQIKGVELKS; not fully specified)”, in assay [1], the “inhibition of antibody binding to amphetamine-TH(ova) coated plates” value is reported as “lower level of inhibition”.

Take `C[C@H](N)Cc1ccccc1` [Amphetamine-sulfate, D-amphetamine sulfate]: the “inhibition of antibody binding to amphetamine-TH(ova) coated plates” value in assay [1] is recorded as “low level of inhibition”. Regarding `O=C(O)CCCCCNc1ccc([N+](=O)[O-])cc1[N+](=O)[O-]` [2,4-DNP-ahx, 2,4-dinitrophenol-ε-amino-n-caproic acid], the “inhibition of antibody binding to DNP-BSA coated plates” value is given as “approximately 55%” in the assay with anti-DNP antibodies (setting [2]) and “approximately 80%” with anti-DNP antibodies (setting [3]).

As to `O=[N+]([O-])c1ccc(O)c([N+](=O)[O-])c1` [2,4-DNP, 2,4-dinitrophenol], the entries for the “inhibition of antibody binding to DNP-BSA coated plates” value with anti-DNP antibodies (setting [2]) and with anti-DNP antibodies (setting [3]) were “No inhibition” and 35%, respectively. `Oc1ccccc1` [phenol]: the “inhibition of antibody binding to DNP-BSA coated plates by irrelevant inhibitors” value in the assay with anti-DNP antibodies was “no inhibition”. Regarding `CN[C@@H](C)Cc1ccccc1` [Methamphetamine hydrochloride], the “inhibition of antibody binding to amphetamine-TH(ova) coated plates” value in assay [1] is given as “No inhibition”.
